These results are taken from US9358239B2, “NiSOD-like compound and its derivatives for suppressing abnormal protein aggregation, recovering cell viability, increasing mature neuron number and neurite outgrowth length and protecting dopaminergic cells by reducing oxidative stress or reactive oxygen species in brain tissues” (National Taiwan Normal University, priority 2012, dated 2016).

As usually defined, the EC50 is the concentration at which the effect is half-maximal. Read a high EC50 as a less potent agent.

In assay [1] the test system is ATXN3/Q75 aggregation. In words: ATXN3/Q75-GFP aggregation, high-content analysis in Flp-In 293 cells. It counts as cell-based, human. To be noted: at 100 nM. The text has this: For therapies toward the polyQ diseases, we aimed to screen compounds potentially inhibiting polyQ aggregation. As removal of the N-terminal ATXN3 was required for ATXN3 aggregation, GFP-tagged ATXN3/Q14-75 C-terminal fragment was cloned to establish Flp-In 293 cells with inducible ATXN3/Q14-75-GFP expression. Refer to FIG. 2. The GFP antibody detected 40˜57 kDa ATXN3/Q14-75-GFP proteins in doxycycline (+Dox) induced ATXN3 cells. Refer to FIGS. 3A and 3B. While the expressed ATXN3/Q14 was primarily diffused, the expressed ATXN3/Q75-GFP formed aggregates. For high content aggregation analysis, these ATXN3/Q75 cells were seeded onto 96-well plate, treated with tested compounds WCt003, WCt006 and WCt021 for 8 hours, and doxycycline was added to induce ATXN3/Q75-GFP expression for 6 days. Oxaliplatin (5 μM, Sigma) was added for aggregate accumulation through inhibition of DNA synthesis. Then cells were stained with Hochest 33342 (0.1 μg/ml, Sigma) and aggregation percentage was assessed by high-content analysis (HCA) system, with excitation/emission wavelengths at 482/536 (GFP).
Refer to FIG. 4. Cells expressing ATXN3/Q75 were examined with tested compounds WCt003, WCt006 and WCt021. […] WCt003 and WCt006 reduced the ATXN3/Q75 aggregation to 80% to 84% at 10 nM and 100 nM, and WCt021 reduced the ATXN3/Q75 aggregation to 80% to 84% at 1 nM to 100 nM. […]

The nature of assay [2]: DPPH free radical scavenging assay. To be noted: absorbance at 517 nm. It counts as biochemical. An excerpt:
For DPPH (1,1-diphenyl-2-picryl hydrazyl) scavenging activity, the odd electron in the stable DPPH free radical gives a strong absorption maximum at 517 nm and is purple in color. The DPPH assay measured scavenging ability of the antioxidants towards the stable radical. The free radical DPPH was reduced when it reacted with antioxidants and results in decrease in absorbance at 517 nm. The degree of discoloration indicated the scavenging potential of the antioxidant compounds. Refer to FIG. 7.
A general note: DPPH is a stable violet radical that fades when it is reduced.

Assay [3] is described as follows: SOD Assay Kit-WST, SOD(-like) activity. It counts as biochemical. To be noted: WST-1 reduction. An excerpt: For SOD activity, SOD enzyme from human erythrocytes (Sigma, catalog number 59636) and HEK-293 cell lysate (5×10^6/ml) were used as comparison. The SOD Assay Kit-WST from Dojindo was used to determine SOD activity. The assay utilizes WST-1 [2-(4-iodophenyl)-3-(4-nitrophenyl)-5-(2,4)-disulfophenyl-2H-tetrazolium, monosodium salt] that produces a water-soluble formazan dye upon reduction with the superoxide anion. The rate of the reduction of WST-1 with O2^− was linearly related to the xanthine oxidase (XO) activity, and this reduction was inhibited by SOD. Therefore, the IC50 (50% inhibition activity of SOD or SOD-like materials) can be determined by the colorimetric method. Refer to FIG. 6A. […] Refer to FIG. 6B. […] Refer to FIG. 6C.
For orientation: Tetrazolium dyes change colour on reduction, which living cells bring about.

With `O=C(CCCCCCC(=O)Nc1ccccc1)NO` [SAHA, suberoylanilide hydroxamic acid], the “ATXN3/Q75 aggregation as compared to untreated cells” value in assay [1] turned out to be 85%. With `O=c1c(O)c(-c2ccc(O)cc2)oc2cc(O)cc(O)c12` [kaempferol, reference compound], the EC50 in assay [2] was 26.7 µM.

For the compound “SOD enzyme from human erythrocytes: SOD enzyme from human erythrocytes (Sigma), used as comparison”, the “IC50 (SOD activity)” value in assay [3] is recorded as 0.38 U/ml.
